In patent publication US11427869B2, “T cell balance gene expression, compositions of matters and methods of use thereof” (THE BROAD INSTITUTE, INC., priority 2015, dated 2022):

Molecular target: T1, Rorγt (Mus musculus, UniProt P51450)
T1 construct: expressed in transfected cells; host or cells: EL4 cells stably transfected with Rorγt vector
T1 sequence (P51450 1-495 isoform P51450-2): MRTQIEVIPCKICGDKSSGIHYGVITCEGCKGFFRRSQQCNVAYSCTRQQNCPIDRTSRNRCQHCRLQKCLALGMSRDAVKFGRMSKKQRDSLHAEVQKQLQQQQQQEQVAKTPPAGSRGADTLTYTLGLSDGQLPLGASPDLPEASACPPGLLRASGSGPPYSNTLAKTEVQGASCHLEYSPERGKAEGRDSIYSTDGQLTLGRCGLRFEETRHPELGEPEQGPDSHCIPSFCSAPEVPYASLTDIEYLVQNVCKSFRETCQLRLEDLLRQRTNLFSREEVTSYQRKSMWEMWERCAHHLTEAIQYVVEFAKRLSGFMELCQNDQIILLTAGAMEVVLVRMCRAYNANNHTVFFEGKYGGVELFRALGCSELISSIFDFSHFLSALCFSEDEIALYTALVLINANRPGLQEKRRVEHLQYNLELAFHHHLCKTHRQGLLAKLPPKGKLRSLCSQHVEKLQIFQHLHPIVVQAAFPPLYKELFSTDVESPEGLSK
Assay: Dual luciferase reporter assay of Rorγt transcriptional activity in EL4 cells
Assay type: cell-based
Details: EL4 cells, CD5L-RV 100 ng; ligand 5, 0.5 or 0.05 uM
Protocol: Cells and supernatant were harvested at 96 hours and subjected to MS/LC. Three independent mouse experiments were performed. […] All ChIP and luciferase assay are representative of at least 3 independent experiments.
Three independent experiments were performed.

CC(CO)CCC[C@@H](C)[C@H]1CC[C@H]2[C@@H]3[C@@H](O)C=C4C[C@@H](O)CC[C@]4(C)[C@H]3CC[C@]12C (stereo partly drawn) [7β, 27-dihydroxycholesterol]
Il17 reporter transcription (luciferase): rescued the CD5L-driven suppression of Il17 reporter transcription
